Measured values reported in patent US20240277847A1, “BENCH-STABLE TRIAZENE COMPOSITIONS FOR PROTEIN MODIFICATION” (ARIZONA BOARD OF REGENTS ON BEHALF OF THE UNIVERSITY OF …, priority 2021, published 2024).

Assay: pH of triazene water solution before, during and after 370 nm irradiation
Format: physicochemical
Settings: 0.5 mM triazene in water, 370 nm light; for pH change during irradiation: 1 minute
Method: Referring to FIG. 5, 0.5 mM of triazenes 1a, 1g, and 1i were incubated in a water solution and the relative pH was measured before, during, and after irradiation with 370 nm light. […] Furthermore, the data notes that after irradiation has ceased, there is an immediate drop in pH consistent with the reversion of the scaffold to the trans-species.

## c1ccc(N=NN2CCCCC2)cc1 [1g]
  pH change during irradiation: notable increases of pH

## COc1ccc(N=Nc2ccc(O)cc2O)cc1 [2i]
  pH change during irradiation: notable increases of pH

## COc1ccc(N=NN2CCCCC2)cc1 [1i]
  relative change in pH versus 1g: over double that of 1g

## O=[N+]([O-])c1ccc(N=NN2CCCCC2)cc1 [1a]
  pH change during irradiation: did not elicit notable pH change
